Data taken from patent US20230012368A1 (Hoffmann-La Roche Inc., priority 2018, published 2023).
Counter-ions that a name gives are not always drawn.

What follows are compounds tested on Acinetobacter baumannii ATCC 17978 (assay: Antimicrobial susceptibility testing: 90% growth inhibitory concentration (IC90) determination). Conditions: 90% growth inhibitory concentration; Acinetobacter baumannii ATCC17978; Iso-Sensitest broth, OD 600 nm over 16h; hydrochloride; read-out: ATCC17978 IC90.
Format: cell-based
Summary of the method: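 Growth of the Acinetobacter baumannii strain was followed by optical density at 600 nm every 20 minutes for 16h at 35±2° C. Inoculum was ~5×10^(5) CFU/ml in Iso-Sensitest medium, with twofold compound dilutions (e.g. 50 to 0.097 μM final). The 90% inhibitory concentration was derived in log-phase growth.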

| SMILES | IC90 |
| --- | --- |
| CCc1cc(Nc2nccn3c(-c4ccc(OC)c(F)c4F)cnc23)ccc1C(=O)NCC(O)CN (stereo not shown) [Example 147, N-(3-amino-2-hydroxy-propyl)-4-[[3-(2,3-difluoro-4-methoxy-phenyl)imidazo[1,2-a]pyrazin-8-yl]amino]-2-ethyl-benzamide;hydrochloride] | 450 nM |

Same assay, conditions: 90% growth inhibitory concentration; Acinetobacter baumannii ATCC17978; Iso-Sensitest broth, OD 600 nm over 16h; read-out: ATCC17978 IC90

| SMILES | IC90 |
| --- | --- |
| CCc1cc(Nc2nccn3c(-c4ccc(Oc5ncccn5)c(F)c4F)cnc23)ccc1C(=O)NCCNC(=O)[C@H](N)CCNC(=N)N [Example 439, N-[2-[[(2R)-2-amino-4-guanidino-butanoyl]amino]ethyl]-4-[[3-(2,3-difluoro-4-pyrimidin-2-yloxy-phenyl)imidazo[1,2-a]pyrazin-8-yl]amino]-2-ethyl-benzamide; formic acid] | 340 nM |
| CCc1cc(Nc2nccn3c(-c4ccc(OC)c(F)c4F)cnc23)ccc1C(=O)NCCCCCCCN [Example 517, N-(7-aminoheptyl)-4-((3-(2,3-difluoro-4-methoxyphenyl)imidazo[1,2-a]pyrazin-8-yl)amino)-2-ethylbenzamide hydrochloride] | 67 nM |
| COc1ccc(-c2cnc3c(Nc4ccc(C(=O)N(C)CCN5CCOC(CN(C)C)C5)c(C)c4)nccn23)cc1F (stereo not shown) [Example 108, N-[2-[2-[(dimethylamino)methyl]morpholin-4-yl]ethyl]-4-[[3-(3-fluoro-4-methoxy-phenyl)imidazo[1,2-a]pyrazin-8-yl]amino]-N,2-dimethyl-benzamide; formic acid] | 1200 nM |

Same assay, conditions: Acinetobacter baumannii, ATCC17978, 16 h, 90% growth inhibitory concentration; Acinetobacter baumannii ATCC17978; Iso-Sensitest broth, OD 600 nm over 16h; read-out: ATCC17978 IC90

| SMILES | IC90 |
| --- | --- |
| CCc1cc(Nc2nccn3c(-c4ccc(OCC#CCOCCN)c(F)c4F)cnc23)ccc1C(=O)NCCCN [Example 159, 4-[[3-[4-[4-(2-aminoethoxy)but-2-ynoxy]-2,3-difluoro-phenyl]imidazo[1,2-a]pyrazin-8-yl]amino]-N-(3-aminopropyl)-2-ethyl-benzamide] | 230 nM |
| C#CCCCNC(=O)c1ccc(Nc2nccn3c(-c4ccc(OC)c(F)c4F)cnc23)cc1CC [Example 481, 4-((3-(2,3-difluoro-4-methoxyphenyl)imidazo[1,2-a]pyrazin-8-yl)amino)-2-ethyl-N-(pent-4-yn-1-yl)benzamide] | 260 nM |
| COc1ccc(-c2cnc3c(Nc4ccc(C(=O)NCC5CCNCC5)c(Cl)c4)nccn23)c(F)c1F [Example 58, 2-chloro-4-[[3-(2,3-difluoro-4-methoxy-phenyl)imidazo[1,2-a]pyrazin-8-yl]amino]-N-(4-piperidylmethyl) benzamide] | 170 nM |
| COc1ccc(-c2cnc3c(Nc4ccc(C(=O)N(C)CCCN)c(C)c4)nccn23)cc1 [Example 34, N-(3-aminopropyl)-4-((3-(4-methoxyphenyl)imidazo [1,2-a]pyrazin-8-yl)amino)-N,2-dimethylbenzamide hydrochloride] | 1100 nM |
| CCc1cc(Nc2nccn3c(-c4ccc(OC(F)F)c(F)c4F)cnc23)ccc1C(=O)NC(C)CCN (stereo not shown) [Example 402, N-(4-aminobutan-2-yl)-4-((3-(4-(difluoromethoxy)-2,3-difluorophenyl)imidazo[1,2-a]pyrazin-8-yl)amino)-2-ethylbenzamide hydrochloride] | 570 nM |
| COc1ccc(-c2cnc3c(Nc4ccc5c(c4)CCN(CCCO)C5=O)nccn23)c(F)c1F [Example 327, 6-[[3-(2,3-difluoro-4-methoxyphenyl)imidazo[1,2-a]pyrazin-8-yl]amino]-2-(3-hydroxypropyl)-3,4-dihydroisoquinolin-1-one] | 290 nM |
| COc1ccc(-c2cnc3c(Nc4ccc5c(c4)CCN(CCCN)C5=O)nccn23)c(F)c1F [Example 164, 2-(3-aminopropyl)-6-[[3-(2,3-difluoro-4-methoxy-phenyl)imidazo[1,2-a]pyrazin-s-yl]amino]-3,4-dihydroisoquinolin-1-one] | 290 nM |
| COc1ccc(-c2cnc3c(Nc4ccc(C(=O)N(C)CCN5CCCCC5)c(Cl)c4)nccn23)cc1F [Example 237, 2-chloro-4-[[3-(3-fluoro-4-methoxyphenyl)imidazo[1,2-a]pyrazin-8-yl]amino]-N-methyl-N-(2-piperidin-1-ylethyl)benzamide] | 1500 nM |
| Cc1cc(Nc2nccn3c(-c4ccc(Cl)cc4)cnc23)ccc1C(=O)NCCC1CCNCC1 [Example 189, 4-[[3-(4-chlorophenyl)imidazo[1,2-a]pyrazin-8-yl]amino]-2-methyl-N-(2-piperidin-4-ylethyl)benzamide;hydrochlo-ride] | 280 nM |
| CCc1cc(Nc2nccn3c(-c4ccc(OC)c(F)c4F)cnc23)ccc1C(=O)NCCCC[C@H](N)C(=O)O [Example 344, (2S)-2-amino-6-[[4-[[3-(2,3-difluoro-4-methoxyphenyl)imidazo[1,2-a]pyrazin-8-yl]amino]-2-ethylbenzoyl]amino]hexanoic acid;2,2,2-trifluoroacetic acid] | 800 nM |

Second part, the compound after the results:

| IC90 | SMILES |
| --- | --- |
| 120 nM | CCc1cc(Nc2nccn3c(-c4ccc(OC(F)F)c(F)c4F)cnc23)ccc1C(=O)NCCCO [Example 293, 4-[[3-[4-(difluoromethoxy)-2,3-difluorophenyl]imidazo[1,2-a]pyrazin-8-yl]amino]-2-ethyl-N-(3-hydroxypropyl)benzamide] |
| 1300 nM | Cc1cc(Nc2nccn3c(-c4ccc(OC(F)F)cc4)cnc23)ccc1C(=O)N(C)CCC1CCN(S(C)(=O)=O)CC1 [Example 234, 4-[[3-[4-(difluoromethoxy)phenyl]im-idazo[1,2-a]pyrazin-8-yl]amino]-N,2-dimethyl-N-[2-(1-methylsulfonylpiperidin-4-yl)ethyl]benzamide] |
| 2200 nM | COC(=O)[C@H](CCCCNC(=O)c1ccc(Nc2nccn3c(-c4ccc(OC(F)F)cc4)cnc23)cc1C)NC(=O)OC(C)(C)C [Example 245, methyl (2S)-6-[[4-[[3-[4-(difluoromethoxy)phenyl]im-idazo[1,2-a]pyrazin-8-yl]amino]-2-methylbenzoyl]amino]-2-[(2-methylpropan-2-yl)oxycarbonylamino]hexa-noate] |
| 520 nM | COc1ccc(-c2cnc3c(Nc4ccc(C(=O)NCCNC(=O)CC[C@@H]5NC5=O)c(C)c4)nccn23)c(F)c1F [Example 337, 4-[[3-(2,3-difluoro-4-methoxyphenyl)imidazo[1,2-a]pyrazin-8-yl]amino]-2-methyl-N-[2-[3-[(2S)-3-oxoaziridin-2-yl]propanoylamino]ethyl]benz-amide] |
| 41 nM | CCc1cc(Nc2nccn3c(-c4ccc(OC)c(F)c4F)cnc23)ccc1C(=O)NCCCCCCN1CCCCC1 [Example 534, 4-((3-(2,3-difluoro-4-methoxyphenyl)imidazo[1,2-a]pyrazin-8-yl)amino)-2-ethyl-N-(6-(piperidin-1-yl)hexyl)benzamide] |
| 1100 nM | Cc1cc(Nc2nccn3c(-c4ccc(OC(F)F)cc4)cnc23)ccc1C(=O)NCCN1CCNC(=O)C1 [Example 221, 4-[[3-[4-(difluoromethoxy)phenyl]im-idazo[1,2-a]pyrazin-8-yl]amino]-2-methyl-N-[2-(3-oxopiperazin-1-yl)ethyl]benzamide] |
| 210 nM | CCc1cc(Nc2nccn3c(-c4ccc(OC)c(F)c4Cl)cnc23)ccc1C(=O)NCCNC(=O)[C@@H](N)CCCNC(=N)N [Example 126, N-[2-[[(2S)-2-amino-5-guanidino-pentanoyl]amino]ethyl]-4-[[3-(2-chloro-3-fluoro-4-methoxy-phenyl)imidazo[1,2-a]pyrazin-8-yl]amino]-2-ethyl-benzamide formate] |
| 530 nM | CCc1cc(Nc2nccn3c(-c4ccc(Oc5ncccn5)c(F)c4F)cnc23)ccc1C(=O)NCCNC(=O)CCN [Example 431, N-[2-(3-aminopropanoylamino)ethyl]-4-[[3-(2,3-difluoro-4-pyrimidin-2-yloxy-phenyl)imidazo[1,2-a]pyrazin-8-yl]amino]-2-ethyl-benzamide; formic acid] |
| 240 nM | CCc1cc(Nc2nccn3c(-c4ccc(OC)c(F)c4F)cnc23)ccc1C(=O)NCCNC(=O)[C@@H](N)CCCNC1=NCCN1 [Example 128, N-[2-[[(2S)-2-amino-5-(4,5-dihydro-1H-imidazol-2-ylamino)pentanoyl]amino]ethyl]-4-[[3-(2,3-difluoro-4-methoxy-phenyl)imidazo[1,2-a]pyrazin-8-yl]amino]-2-ethyl-benzamide formate] |
| 2000 nM | Cc1cc(Nc2nccn3c(-c4ccc(OC(F)F)cc4)cnc23)ccc1C(=O)NCC1CNCCO1 (stereo not shown) [Example 242, 4-[[3-[4-(difluoromethoxy)phenyl]im-idazo[1,2-a]pyrazin-8-yl]amino]-2-methyl-N-(morpholin-2-ylmethyl)benzamide; hydrochlo-ride] |
| 110 nM | COc1ccc(-c2cnc3c(Nc4ccc(C(=O)NCC5CCN(C(=N)N)CC5)c(C)c4)nccn23)c(F)c1F [Example 292, N-[(1-carbamimidoylpiperidin-4-yl)methyl]-4-[[3-(2,3-difluoro-4-methoxyphenyl)imidazo[1,2-a]pyrazin-8-yl]amino]-2-methylbenzamide] |
| 560 nM | CCc1cc(Nc2nccn3c(-c4ccc(Oc5nccc(OC)n5)c(F)c4F)cnc23)ccc1C(=O)NCCN [Example 466, N-(2-aminoethyl)-4-((3-(2,3-difluoro-4-((4-methoxypyrimidin-2-yl)oxy)phenyl)imidazo[1,2-a]pyrazin-8-yl)amino)-2-ethylbenzamide] |
| 110 nM | CCc1cc(Nc2nccn3c(-c4ccc(OC(F)F)c(F)c4F)cnc23)ccc1C(=O)NCCCNC(=O)CN(C)C [Example 324, 4-[[3-[4-(difluoromethoxy)-2,3-difluorophenyl]imidazo[1,2-a]pyrazin-8-yl]amino]-N-[3-[[2-(dimethylamino)acetyl]amino]propyl]-2-ethylbenzamide] |
| 150 nM | COc1ccc(-c2cnc3c(Nc4ccc(C(=O)NCC5CCN(C(=N)N)CC5)c(Cl)c4)nccn23)cc1F [Example 296, N-[(1-carbamimidoylpiperidin-4-yl)methyl]-2-chloro-4-[[3-(3-fluoro-4-methoxyphenyl)imidazo[1,2-a]pyrazin-8-yl]amino]benzamide] |
